# Measured values taken from US4698350A, “1-ethyl-6-fluoro-1,4-dihydro- 7-(2,6-dimethyl-4-pyridinyl)-4-oxo-3-quinolinecarboxylic acid and antibacterial use thereof” (Sterling Drug Inc., priority 1984, dated 1987).
# “Also recorded” adds a separate entry of the source. Counter-ions that a name gives are not always drawn. Like-named read-outs stand apart in the source and are kept apart here.
# Key:
# [1] = system: Gram-positive cocci; assay: In vitro antibacterial activity; format: cell-based, S. aureus, S. epidermidis and Streptococcus species
# Experimental: (§1) Win 52,522 and Win 35,439 were solubilized in 0.1 ml of 0.5 N NaOH/mg of compound and diluted in sterile distilled water to 160 mcg/ml. Vancomycin and methicillin were solubilized in sterile distilled water to 1250 mcg/ml of base compound. The stock solutions were sterilized by filtration through membrane filters with a 0.45 μm pore size.
# (§2) The bacterial cultures listed in Table I (hereinbelow) were grown overnight at 37° C. in MHB for all cultures except the Streptococcus strains. These were grown in BHI+10% NHS. The overnight broth cultures were adjusted to an optical density of 0.10 (650 nm, B L Spectronic 20) in sterile distilled water and subsequently diluted to 6.7×10^6 cells/ml in MHB or BHI+1% NHS.
# Serial two-fold dilutions of the compound solutions were prepared in MHB (or in BHI+1% NHS for tests with Streptococci) and dispensed into 96-well microtiter trays in a volume of 0.1 ml/well using a Sandy Springs (Bellco Glass Co.) dispenser. The trays were then inoculated with 0.0015 ml of a suspension containing 6.7×10^6 cells/ml of the appropriate inoculum using a MIC-2000 inoculator (Dynatech Corp.) resulting in a final inoculum of approximately 1×10^4 cells/well or 1×10^5 cells/ml. The trays were incubated at 37° C. for 18-20 hours and the minimal inhibitory concentration (MIC), defined as the lowest concentration of compound to inhibit visible bacterial growth, was recorded. […]
# [2] = system: S. pneumoniae; assay: In vitro antibacterial activity; format: cell-based; details: one strain of S. pneumoniae
# Experimental: as §1, §2
# (§3) Serial two-fold dilutions of the compound solutions were prepared in MHB (or in BHI+1% NHS for tests with Streptococci) and dispensed into 96-well microtiter trays in a volume of 0.1 ml/well using a Sandy Springs (Bellco Glass Co.) dispenser. The trays were then inoculated with 0.0015 ml of a suspension containing 6.7×10^6 cells/ml of the appropriate inoculum using a MIC-2000 inoculator (Dynatech Corp.) resulting in a final inoculum of approximately 1×10^4 cells/well or 1×10^5 cells/ml. The trays were incubated at 37° C. for 18-20 hours and the minimal inhibitory concentration (MIC), defined as the lowest concentration of compound to inhibit visible bacterial growth, was recorded.
# (§4) After the MIC values were recorded, the contents in the microtiter trays were thoroughly mixed on a Bellco Mini-orbital Shaker (Bellco Glass Co.) for 3 min. at a setting of 8. A portion (0.0015 ml) from each well was then transferred via an MIC-2000 inoculator to plates containing MHA or BHI agar+10% NHS. The plates were incubated at 37° C. for 18-20 hrs. The minimal bactericidal concentration (MBC), defined as the lowest concentration of compound that prevented the formation of a recognizable colony on the agar surface, was recorded.
# [3] = system: S. faecalis; assay: In vitro antibacterial activity; format: cell-based; details: all 4 strains of S. faecalis
# Experimental: as §1, §2, §3, §4
# [4] = system: S. pyogenes; assay: In vitro antibacterial activity; format: cell-based; details: 3 strains of S. pyogenes
# Experimental: as §1, §2, §3, §4
# [5] = system: E. coli; assay: In vitro MIC/MBC summary (Table II); format: cell-based; details: Escherichia coli, 5 E. coli strains
# Experimental: as §1, §2, §3, §4
# [6] = system: all thirteen of the target anaerobic microorganisms; assay: Antimicrobial activity against anaerobic microorganisms; format: cell-based
# Experimental: 1. Maintenance. Prior to use, all strains were maintained in the lyophilized state. During the study, cultures were examined on blood agar basal medium supplemented with 5.0% (v/v) defibrinated rabbit blood. Culture transfer was accomplished weekly with all cultures being incubated in an anaerobic atmosphere (GasPak jar; BBL).
# 2. Agar Medium. The basal test medium consisted of trypticase soy agar (40 g), yeast extract (1 g), glucose (2 g) and 960 ml of distilled water pH 7.2. [Mashimo et al., J. Clin. Micro. 17, 187-191 (1983)]. Subsequent to sterilization and cooling to 50° C., the medium was supplemented with 4% (v/v) defibrinated rabbit blood and 0.5 μg/ml menadione (Vitamin K3) The agent under evaluation was also added at this time to the concentration desired. Subsequent to pouring of the plates, they were permitted to dry at 4° C. for 24 hr.
# 3. Determination of Agent MIC. The minimal inhibitory concentration (MIC) of the various test agents was determined using an agar dilution technique. Agents and appropriate reference compounds were added to achieve a series of concentrations ranging between 32 μg/ml and 0.007 μg/ml. The inocula were prepared from 96-hr. cultures grown on the maintenance medium. Subsequent to a purity evaluation, colonies were removed and suspended in trypticase soy broth supplemented with 5 μg/ml menadione and 2% lysed rabbit blood filtrate to achieve an OD650 of 0.1 (this corresponded to approximately 10^8 cells/ml). Cultures were inoculated aerobically on the modified trypticase soy blood agar plates by use of a Steer's replicator (which delivers about 10^5 cells per spot). The plates were allowed to dry for a time not exceeding 30 min. and then incubated at 37° C. under an atmosphere of […], 10% H2 and 5% CO2 maintained in an anaerobic chamber (Coy Manufacturing Co.) for 48 hr. The MIC was defined as the lowest concentration completely inhibiting growth.
# Tetracycline stock solutions (1 mg/ml) were made subsequent to dissolution in water. Stock solutions (1 mg/ml) of the remaining test compounds were made subsequent to dissolution in 1/10 N NaOH.
# [7] = system: S. pyogenes and S. pneumoniae; assay: In vitro antibacterial activity; format: cell-based
# Experimental: as §1, §2, §3, §4
# [8] = system: all 39 bacterial test strains; assay: In vitro antibacterial activity; format: cell-based
# Experimental: as §1, §2, §3, §4
# [9] = system: penicillin-sensitive and methicillin-resistant Staphylococcus aureus strains; assay: Mouse protection tests, S. aureus infections; format: in vivo, ICR mice; Staphylococcus aureus; details: subcutaneous and oral routes, mice
# Experimental: ICR mice, female, 18-20 grams each.
# Solutions of Win 52,522 and Win 35,439 were prepared by dissolving the appropriate weight of drug in 0.3 to 0.4 ml of 1 N NaOH and then bringing the solutions to the desired volume with distilled water. Methicillin and vancomycin were dissolved directly in distilled water.
# Mice were inoculated intraperitoneally with 0.5 ml of the bacterial test inoculum.
# Deaths were recorded daily for seven days for all tests. Fifty percent protective dose values (PD50's) were calculated using probit analysis [SAS Users Guide: Statistics, 1982 Edition, SAS Institute, Inc., Cary, N.C.].
Compound,MIC [5],MIC50 [5],MIC90 [5],MBC ([5]; read-out: MBC 50%),MBC ([5]; read-out: MBC Range),also measured
"COc1cccc(OC)c1C(=O)N[C@@H]1C(=O)N2[C@@H]1SC(C)(C)[C@@H]2C(=O)O [Methicillin, 6-(2,6-dimethoxybenzamido)penicillanic acid sodium salt]",,,,,,bactericidal / bacteriostatic ([1]; Gram-positive cocci): bactericidal
CN[C@H](CC(C)C)C(=O)N[C@H]1C(=O)N[C@@H](CC(N)=O)C(=O)N[C@H]2C(=O)N[C@H]3C(=O)N[C@H](C(=O)N[C@H](C(=O)O)c4cc(O)cc(O)c4-c4cc3ccc4O)[C@H](O)c3ccc(c(Cl)c3)Oc3cc2cc(c3O[C@@H]2O[C@H](CO)[C@@H](O)[C@H](O)[C@H]2O[C@H]2C[C@](C)(N)[C@H](O)[C@H](C)O2)Oc2ccc(cc2Cl)[C@H]1O [Vancomycin],,,,,,bactericidal / bacteriostatic [2]: bacteriostatic; bactericidal / bacteriostatic [3]: bacteriostatic
"CCn1cc(C(=O)O)c(=O)c2ccc(-c3cc(C)nc(C)c3)cc21 [Win 35,439, 1-ethyl-1,4-dihydro-7-(2,6-dimethyl-4-pyridinyl)-4-oxo-3-quinolinecarboxylic acid]",0.5 to 2 µg/mL,0.5 µg/mL,2 µg/mL,0.5 µg/mL,0.5 to 2 µg/mL,bactericidal / bacteriostatic [4]: bacteriostatic
"CCn1cc(C(=O)O)c(=O)c2cc(F)c(-c3cc(C)nc(C)c3)cc21 [Win 52,522, 1-ethyl-6-fluoro-1,4-dihydro-7-(2,6-dimethyl-4-pyridinyl)-4-oxo-3-quinolinecarboxylic acid]",0.25 to 0.5 µg/mL,0.25 µg/mL,0.25 µg/mL,0.25 µg/mL,0.25 to 0.5 µg/mL,"antimicrobial activity (in words) [6]: high activity against all thirteen of the target anaerobic microorganisms; also recorded: extremely active against a number of anaerobic microorganisms; also recorded: markedly superior to both Win 35,213 and 35,439; also recorded: broad spectrum of antimicrobial activity, comparing favorably with the currant antibiotic of choice, tetracycline; times more potent in vitro than Win 35,439 ([1]; several Gram-positive cocci): 2-8 times; times less potent than methicillin [7]: 2-8 times; MBC/MIC ([8]; all Gram-positive and Gram-negative test strains): ≤ 4; bactericidal / bacteriostatic ([8]; all test strains): bactericidal; in vivo efficacy (in words) [9]: more efficacious than Win 35,439; also recorded: very potent antibacterial agent"
